{"source": "paper PMC9458065", "about": "“Discovery of Quinacrine as a Potent Topo II and Hsp90 Dual-Target Inhibitor, Repurposing for Cancer Therapy” (Molecules, 2022)", "key": {"[1]": {"test_system": "HL60 (HL−60 human leukemia cell)", "experiment": "cells", "set-up": "MTT cell proliferation assay, OD 570 nm, IC50 from triplicate dose-response", "conditions": "MTT, 48 h", "description": "The cell proliferation assay was evaluated using the MTT assay as described by Mosmann, with modifications. Cells were seeded into 96−well plates (5 × 10^3 cells/well) and exposed to various concentrations of compounds. After 48 h of treatment, 20 μL of 2.5 mg/mL MTT reagent was added to each well, and the cells were further incubated for 4 h at 37 ℃. The cells in each well were then treated with 100 μL of dimethyl sulfoxide (DMSO), and the optical density (OD) was recorded at 570 nm using a microplate reader (Bio−Tek). All experiments were performed in parallel three times, and the IC50 values were derived from the mean OD values of triplicate tests versus the drug concentration curves. […] HL−60 human leukemia cell is sensitive to Topo II inhibitors, which are commonly used to evaluate the inhibitory effect of Topo II inhibitors on proliferation."}, "human Topo IIα": {"biological_target": "T1, human Topo IIα (Homo sapiens, UniProt P11388)", "T1 construct": "gene TOP2A; full-length enzyme of a commercial relaxation kit (Inspiralis)", "T1 sequence (P11388 whole entry)": "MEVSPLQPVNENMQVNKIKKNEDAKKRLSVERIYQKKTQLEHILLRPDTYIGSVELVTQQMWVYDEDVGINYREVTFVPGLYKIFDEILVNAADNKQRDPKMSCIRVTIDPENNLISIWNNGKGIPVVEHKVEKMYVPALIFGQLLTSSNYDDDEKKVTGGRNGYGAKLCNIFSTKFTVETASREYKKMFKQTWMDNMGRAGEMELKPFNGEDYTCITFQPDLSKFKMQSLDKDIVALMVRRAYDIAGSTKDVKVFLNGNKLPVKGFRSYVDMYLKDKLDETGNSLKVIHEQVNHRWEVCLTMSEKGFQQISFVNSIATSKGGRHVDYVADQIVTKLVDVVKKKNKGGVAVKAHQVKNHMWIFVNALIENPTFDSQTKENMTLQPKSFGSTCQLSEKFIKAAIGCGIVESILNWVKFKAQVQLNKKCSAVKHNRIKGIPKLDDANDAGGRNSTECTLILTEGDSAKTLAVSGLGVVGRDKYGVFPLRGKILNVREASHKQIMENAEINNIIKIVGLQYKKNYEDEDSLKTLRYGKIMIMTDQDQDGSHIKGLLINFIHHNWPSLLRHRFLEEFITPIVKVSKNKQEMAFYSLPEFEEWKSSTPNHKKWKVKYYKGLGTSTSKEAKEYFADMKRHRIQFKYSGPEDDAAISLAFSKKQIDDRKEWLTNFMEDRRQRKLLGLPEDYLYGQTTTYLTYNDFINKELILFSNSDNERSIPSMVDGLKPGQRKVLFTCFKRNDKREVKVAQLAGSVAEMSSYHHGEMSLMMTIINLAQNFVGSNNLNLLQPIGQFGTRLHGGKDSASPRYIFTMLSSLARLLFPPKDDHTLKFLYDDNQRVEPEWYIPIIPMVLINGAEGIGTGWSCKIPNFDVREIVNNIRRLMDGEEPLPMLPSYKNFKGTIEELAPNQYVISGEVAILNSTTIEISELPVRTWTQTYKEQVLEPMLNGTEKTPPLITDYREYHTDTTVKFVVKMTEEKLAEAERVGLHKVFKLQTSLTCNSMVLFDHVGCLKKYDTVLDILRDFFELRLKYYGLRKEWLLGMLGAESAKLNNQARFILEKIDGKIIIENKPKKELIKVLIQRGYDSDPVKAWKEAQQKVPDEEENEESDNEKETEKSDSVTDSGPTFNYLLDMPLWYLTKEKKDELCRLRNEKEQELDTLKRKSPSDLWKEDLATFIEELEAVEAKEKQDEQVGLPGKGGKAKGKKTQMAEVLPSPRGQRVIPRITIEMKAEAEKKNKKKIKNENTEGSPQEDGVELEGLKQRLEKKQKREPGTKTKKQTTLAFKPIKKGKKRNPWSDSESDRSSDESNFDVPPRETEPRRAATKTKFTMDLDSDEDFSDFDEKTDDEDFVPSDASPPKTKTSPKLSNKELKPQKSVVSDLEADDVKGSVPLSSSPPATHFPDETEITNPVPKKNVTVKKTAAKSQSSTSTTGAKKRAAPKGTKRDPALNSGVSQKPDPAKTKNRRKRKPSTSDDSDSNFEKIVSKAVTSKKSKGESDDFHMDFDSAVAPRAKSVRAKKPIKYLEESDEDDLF", "experiment": "pBR322 DNA relaxation, agarose gel", "type": "biochemical"}, "Hsp90α N−ATPase (9−236)": {"biological_target": "T2, Hsp90α N−ATPase (9−236) (Homo sapiens, UniProt P07900)", "T2 construct": "gene HSP90AA1", "experiment": "fluorescence polarization displacement of GM-FITC"}, "hTopo IIα ATPase": {"biological_target": "T3, hTopo IIα ATPase (Homo sapiens, UniProt P11388)", "T3 construct": "gene TOP2A; ATPase region, residues 29-428 (400 residues), N-terminal 6xHis, pET28a, E. coli BL21 (DE3)", "T3 sequence (P11388 29-428)": "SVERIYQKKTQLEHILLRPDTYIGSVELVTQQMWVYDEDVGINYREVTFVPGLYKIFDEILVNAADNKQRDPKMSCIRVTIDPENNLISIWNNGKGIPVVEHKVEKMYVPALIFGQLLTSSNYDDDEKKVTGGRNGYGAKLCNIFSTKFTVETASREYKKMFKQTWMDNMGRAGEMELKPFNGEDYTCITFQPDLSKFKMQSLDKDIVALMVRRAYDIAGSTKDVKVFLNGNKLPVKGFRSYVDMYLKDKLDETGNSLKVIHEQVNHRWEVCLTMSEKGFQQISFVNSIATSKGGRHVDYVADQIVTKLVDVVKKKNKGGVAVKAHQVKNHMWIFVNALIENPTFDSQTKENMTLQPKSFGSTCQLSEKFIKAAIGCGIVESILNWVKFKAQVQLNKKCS", "experiment": "malachite green ATPase assay", "type": "biochemical", "conditions": "100 µM; […] ATP, […] MgCl2, pH […] °C, […] min; relative inhibition rate, not absolute inhibition", "text": "malachite green ATPase assay on hTopo IIα ATPase"}, "Hsp90α": {"biological_target": "T4, Hsp90α (Homo sapiens, UniProt P07900)", "T4 construct": "gene HSP90AA1", "experiment": "malachite green ATPase assay", "type": "biochemical", "conditions": "read-out: % inhibition at 100 μM"}}, "note": "Counter-ions that a name gives are not always drawn.", "data": [{"smiles": "O=C1C(O)=C([C@H]2CC[C@H](c3ccc(Cl)cc3)CC2)C(=O)c2ccccc21", "note": "[2−G7, Atovaquone]", "values": [{"measurement": "IC50", "setting": "[1]", "value": 9.43, "unit": "µM"}]}, {"smiles": "N=C(N)NC(=O)Cc1c(Cl)cccc1Cl", "note": "[2−H11, Guanfacine HCl]", "values": [{"measurement": "IC50", "setting": "[1]", "value": "> 25", "unit": "µM"}]}, {"smiles": "CC[N+](CC)(CC)CCOc1cccc(OCC[N+](CC)(CC)CC)c1OCC[N+](CC)(CC)CC", "note": "[3−C11, Gallamine triethiodide]", "values": [{"measurement": "IC50", "setting": "[1]", "value": "> 25", "unit": "µM"}]}, {"smiles": "CN1CCN(CCCN2c3ccccc3Sc3ccc(C(F)(F)F)cc32)CC1", "note": "[3−E6, Trifluoperazine 2HCl]", "values": [{"measurement": "IC50", "setting": "[1]", "value": "> 25", "unit": "µM"}]}, {"smiles": "CC(=O)Nc1ccc(CC(=O)O)cc1", "note": "[3−H6, Actarit]", "values": [{"measurement": "IC50", "setting": "[1]", "value": 8.02, "unit": "µM"}]}, {"smiles": "O=C(c1ccc(OCCN2CCCCC2)cc1)c1c(-c2ccc(O)cc2)sc2cc(O)ccc12", "note": "[4−C3, Raloxifene HCl]", "values": [{"measurement": "IC50", "setting": "[1]", "value": 7.2, "unit": "µM"}]}, {"smiles": "Nc1ccc(C(=O)O)c(O)c1", "note": "[5−E4, 4−aminosalicylic acid]", "values": [{"measurement": "IC50", "setting": "[1]", "value": "> 25", "unit": "µM"}]}, {"smiles": "Nc1ccc(O)c(C(=O)O)c1", "note": "[5−E5, 5−aminosalicylic acid]", "values": [{"measurement": "IC50", "setting": "[1]", "value": "> 25", "unit": "µM"}]}, {"smiles": "CC1(C)S[C@@H]2[C@H](NC(=O)[C@H](N)c3ccccc3)C(=O)N2[C@H]1C(=O)O", "note": "[5−E6, Ampicillin trihydrate]", "values": [{"measurement": "IC50", "setting": "[1]", "value": "> 25", "unit": "µM"}]}, {"smiles": "COc1ccc(C[C@@H]2c3cc(OC)c(OC)cc3CC[N@+]2(C)CCC(=O)OCCCCCOC(=O)CC[N@@+]2(C)CCc3cc(OC)c(OC)cc3[C@H]2Cc2ccc(OC)c(OC)c2)cc1OC", "note": "[5−E11, Atracurium besylate]", "values": [{"measurement": "IC50", "setting": "[1]", "value": 22.9, "unit": "µM"}]}, {"smiles": "COc1cc2nc(N3CCN(C(=O)C4COc5ccccc5O4)CC3)nc(N)c2cc1OC", "note": "(centres unmarked) [6−B10, Doxazosin mesylate]", "values": [{"measurement": "IC50", "setting": "[1]", "value": 19.7, "unit": "µM"}]}, {"smiles": "CCN(CC)CCCC(C)Nc1c2ccc(Cl)cc2nc2ccc(OC)cc12", "note": "(centres unmarked) [7−F2, quinacrine]", "values": [{"measurement": "IC50", "setting": "human Topo IIα", "value": 6.18, "unit": "µM"}, {"measurement": "IC50", "setting": "Hsp90α N−ATPase (9−236)", "value": 13.6, "unit": "µM"}, {"measurement": "Topo II ATPase RIR (%) *", "setting": "hTopo IIα ATPase", "value": 42.3, "unit": "%"}, {"measurement": "inhibition at 100 µM", "setting": "Hsp90α", "value": "~70", "unit": "%"}, {"measurement": "IC50", "setting": "[1]", "value": 5.22, "unit": "µM"}]}, {"smiles": "CN[C@@H]1[C@H](O[C@H]2[C@H](O[C@H]3[C@H](O)[C@@H](O)[C@H](N=C(N)N)[C@@H](O)[C@@H]3N=C(N)N)O[C@@H](C)[C@]2(O)C=O)O[C@@H](CO)[C@H](O)[C@H]1O", "note": "[7−H3, Streptomycin sulfate]", "values": [{"measurement": "IC50", "setting": "[1]", "value": "> 25", "unit": "µM"}]}, {"smiles": "COc1ncnc(NS(=O)(=O)c2ccc(N)cc2)c1OC", "note": "[7−H4, Sulfadoxine]", "values": [{"measurement": "IC50", "setting": "[1]", "value": "> 25", "unit": "µM"}]}, {"smiles": "Nc1ccc(S(=O)(=O)Nc2ncccn2)cc1", "note": "[7−H5, Sulfadiazine]", "values": [{"measurement": "IC50", "setting": "[1]", "value": "> 25", "unit": "µM"}]}, {"smiles": "COc1cc(NS(=O)(=O)c2ccc(N)cc2)nc(OC)n1", "note": "[7−H6, Sulfadimethoxine]", "values": [{"measurement": "IC50", "setting": "[1]", "value": "> 25", "unit": "µM"}]}, {"smiles": "O=C(O)c1cc(/N=N/c2ccc(S(=O)(=O)Nc3ccccn3)cc2)ccc1O", "note": "[7−H7, Sulfasalazine]", "values": [{"measurement": "IC50", "setting": "[1]", "value": "> 25", "unit": "µM"}]}, {"smiles": "CCOc1ccccc1OCCN[C@H](C)Cc1ccc(OC)c(S(N)(=O)=O)c1", "note": "[7−H8, Tamsulosin HCl]", "values": [{"measurement": "IC50", "setting": "[1]", "value": "> 25", "unit": "µM"}]}, {"smiles": "CCCc1nc2c(C)cc(-c3nc4ccccc4n3C)cc2n1Cc1ccc(-c2ccccc2C(=O)O)cc1", "note": "[7−H9, Telmisartan]", "values": [{"measurement": "Topo II ATPase RIR (%) *", "setting": "hTopo IIα ATPase", "value": 79.4, "unit": "%"}, {"measurement": "IC50", "setting": "[1]", "value": "> 25", "unit": "µM"}]}, {"smiles": "CN1C(C(=O)Nc2ccccn2)=C(O)c2sccc2S1(=O)=O", "note": "[7−H10, Tenoxicam]", "values": [{"measurement": "IC50", "setting": "[1]", "value": "> 25", "unit": "µM"}]}, {"smiles": "COc1cc2nc(N3CCN(C(=O)C4CCCO4)CC3)nc(N)c2cc1OC", "note": "(centres unmarked) [7−H11, Terazosin HCl]", "values": [{"measurement": "IC50", "setting": "[1]", "value": "> 25", "unit": "µM"}]}, {"smiles": "N[C@@H](Cc1cc(I)c(Oc2cc(I)c(O)c(I)c2)c(I)c1)C(=O)O", "note": "[8−H9, L−thyroxine]", "values": [{"measurement": "IC50", "setting": "[1]", "value": "> 25", "unit": "µM"}]}, {"smiles": "CN[C@@H]1C[C@H]2O[C@@](C)([C@@H]1OC)n1c3ccccc3c3c4c(c5c6ccccc6n2c5c31)C(=O)NC4", "note": "[K−B6, Staurosporine]", "values": [{"measurement": "Topo II ATPase RIR (%) *", "setting": "hTopo IIα ATPase", "value": 111.2, "unit": "%"}]}, {"smiles": "N#C/C(=C\\c1ccc(O)c(O)c1)C(N)=S", "note": "[K−C2, Tyrphostin 47]", "values": [{"measurement": "Topo II ATPase RIR (%) *", "setting": "hTopo IIα ATPase", "value": 90.3, "unit": "%"}, {"measurement": "IC50", "setting": "[1]", "value": "> 25", "unit": "µM"}]}, {"smiles": "N#CC(C#N)=C(N)/C(C#N)=C/c1cc(O)c(O)c(O)c1", "note": "[K−C3, Tyrphostin 51]", "values": [{"measurement": "Topo II ATPase RIR (%) *", "setting": "hTopo IIα ATPase", "value": 85.8, "unit": "%"}, {"measurement": "IC50", "setting": "[1]", "value": "> 25", "unit": "µM"}]}, {"smiles": "CO[C@@H]1[C@H](N(C)C(=O)c2ccccc2)C[C@H]2O[C@]1(C)n1c3ccccc3c3c4c(c5c6ccccc6n2c5c31)C(=O)NC4", "note": "[K−C10, PKC−412]", "values": [{"measurement": "IC50", "setting": "[1]", "value": 0.75, "unit": "µM"}]}, {"smiles": "Oc1cc(O)cc(/C=C/c2ccc(O)c(O)c2)c1", "note": "[K−C11, Piceatannol]", "values": [{"measurement": "Topo II ATPase RIR (%) *", "setting": "hTopo IIα ATPase", "value": 70.5, "unit": "%"}, {"measurement": "IC50", "setting": "[1]", "value": 12.1, "unit": "µM"}]}, {"smiles": "N#C/C(=C\\c1ccc(O)c(O)c1)C(=O)NCc1ccccc1", "note": "[K−D1, AG−490]", "values": [{"measurement": "Topo II ATPase RIR (%) *", "setting": "hTopo IIα ATPase", "value": 61.6, "unit": "%"}, {"measurement": "IC50", "setting": "[1]", "value": 19, "unit": "µM"}]}, {"smiles": "COC[C@H]1OC(=O)c2coc3c2[C@@]1(C)C1=C(C3=O)[C@@H]2CCC(=O)[C@@]2(C)C[C@H]1OC(C)=O", "note": "[K−D6, Wortmannin]", "values": [{"measurement": "IC50", "setting": "[1]", "value": 13.3, "unit": "µM"}]}, {"smiles": "CN(C)CCCn1cc(C2=C(c3c[nH]c4ccccc34)C(=O)NC2=O)c2ccccc21", "note": "[K−D7, GF 109203X]", "values": [{"measurement": "IC50", "setting": "[1]", "value": 9.51, "unit": "µM"}]}, {"smiles": "Cc1cc(O)c2c(=O)c3c(O)cc(O)c4c5c(O)cc(O)c6c(=O)c7c(O)cc(C)c8c1c2c(c34)c(c78)c65", "note": "[K−D8, Hypericin]", "values": [{"measurement": "IC50", "setting": "[1]", "value": "> 25", "unit": "µM"}]}, {"smiles": "Cn1cc(C2=C(c3cn(CCCSC(=N)N)c4ccccc34)C(=O)NC2=O)c2ccccc21", "note": "[K−D9, Ro 31−8220]", "values": [{"measurement": "Topo II ATPase RIR (%) *", "setting": "hTopo IIα ATPase", "value": 99.7, "unit": "%"}, {"measurement": "IC50", "setting": "[1]", "value": 1.18, "unit": "µM"}]}, {"smiles": "CCCCCCCCCCCCC/C=C/[C@@H](O)[C@@H](N)CO", "note": "[K−D10, Sphingosine]", "values": [{"measurement": "Topo II ATPase RIR (%) *", "setting": "hTopo IIα ATPase", "value": 94.3, "unit": "%"}, {"measurement": "IC50", "setting": "[1]", "value": 11.1, "unit": "µM"}]}, {"smiles": "O=c1c(-c2ccc(O)cc2)coc2cc(O)ccc12", "note": "[K−F12, Daidzein]", "values": [{"measurement": "Topo II ATPase RIR (%) *", "setting": "hTopo IIα ATPase", "value": 101.2, "unit": "%"}, {"measurement": "IC50", "setting": "[1]", "value": 3.02, "unit": "µM"}]}, {"smiles": "COc1cc([C@@H]2c3cc4c(cc3[C@@H](O[C@@H]3O[C@@H]5CO[C@@H](C)O[C@H]5[C@H](O)[C@H]3O)[C@H]3COC(=O)[C@H]23)OCO4)cc(OC)c1O", "note": "[VP−16]", "values": [{"measurement": "IC50", "setting": "[1]", "value": 0.17, "unit": "µM"}]}]}
